The test system of one series is H2O2 in the glomeruli. The series is described as follows: Ultrastructural localization of H2O2 (cerium histochemistry) in rat kidney. Conditions: rats. The series is classed as in vivo. Here is the method:
The principle of this method is that cerium ions combine with H2O2 generated by the cell that results in a precipitate with properties suitable for ultrastructural histochemistry. Localization of H2O2 generation was performed following the procedure of Neale et al (PNAS, USA, 1993, 90:3645-3649.). Following PAN treatment, the left kidney was perfused at 37° C. by retrograde aortic perfusion with 4 ml of each of the following solutions: a) PBS; b) 20 mmol Tris-maleate buffer (pH 7.2) containing 7% sucrose (TMS); c) TMS containing 1 mmol aminotriazole; d) TMS containing 10 mmol aminotriazole, 1 mmol cerium chloride heptahydrate and 2.56 mmol B-NADPH; and e) TMS followed by 10 mmol of 2.5% glutaraldehyde as the fixative. Pieces of the kidney were fixed further for 2 hours in glutaraldehyde and embedded in Epon. Sections from the tissue block were routinely stained with 4% aqueous uranyl acetate and alkaline lead, and examined under a Leo 906 electron microscope.

The test system of series [1] is glomerular epithelial cells GEC. Nature of the series: PAN-induced cytotoxicity to GEC (trypan blue exclusion, LDH release). It is filed as cell-based, rat. Particulars: PAN 1.5 mM 48 h; preincubation CM 2 mM, PB 25 μM, RN 1 mM, PIP 0.2 mM, pyruvate 10 mM. Here is the method:
Rat GEC (kindly provided by both Dr. Saulo Klahr, Washington University School of Medicine, St. Louis, Mo., and Dr. […], University of Texas Health Science Center, San Antonio, Tex.) were maintained in RPMI-1640 medium supplemented with 10% FBS, 15 mM HEPES, insulin, penicillin, streptomycin and L-glutamine in a humidified atmosphere of 95% air-5% CO2 at 37° C. and fed at intervals of 3 days ([…] et al, 1995, Biochem. Biophys. 318(2):286-294). The cells were maintained in 75 Cm^2 tissue culture flasks and the monolayers were subcultured using 0.05% trypsin-0.53 mM EDTA in Hank's balanced salt solution (HBSS). For the experimental study, the cells were grown in 12-well tissue culture plate until confluence. On the day of experiment, the medium was discarded and the confluent GEC monolayer was washed twice with HBSS. The cells were then incubated with various concentrations of PAN (0, 0.1, 0.5, 1.0, 1.5, and 2.0 mM in HBSS) for different periods of time (0, 6 hours, 1 day, 2 days, 3 days and 4 days) at 37° C. At the end of the incubation, the incubation medium was discarded and the GEC monolayer was harvested by trypsinization with 0.05% trypsin-0.53 mM EDTA for 5 min at 37° C. Isolated cells were suspended in HBSS to give about 10^6 cells/ml. PAN-induced cytotoxicity to GEC was measured by the trypan blue exclusion assay (Baliga et al, 1996, Kidney Intl. 50:1118-1124) and lactate dehydrogenase (LDH) release assay (Baliga et al., 1998, Kidney Intl. 53:394-401.). The latter is the percentage of LDH released into the medium, to total LDH recovered from both medium and cellular fraction. […] After the incubation, the cell monolayers were washed twice with HBSS and then incubated with cytotoxic dose of PAN in HBSS for a period of time necessary to induce consistent cytotoxicity ([…], 48 h, based on the concentration and time course studies) at 37° C. PAN induced cytotoxicity on GEC was measured by trypan blue exclusion assay.
(LDH leaks from cells whose membrane has failed.)

Experimental findings from US20040014772A1, “Compositions and methods for treating glomerular disorders” (priority 2000, published 2004) are described below.

Entries after “also recorded” stand apart in the source; their conditions may differ.

As for `CN(C)c1ncnc2c1ncn2[C@@H]1O[C@H](CO)[C@@H](N)[C@H]1O` [PAN, puromycin aminonucleoside], the “cerium-H2O2 reaction product in the glomerular basement membrane” value in the series with H2O2 in the glomeruli (1 hour and 6 hours after PAN injection) is listed as “diffusely distributed throughout the glomerular basement membrane”. Also, the “foot processes (electron microscopy)” value in the series with H2O2 in the glomeruli (fourth day after PAN, onset of proteinuria) was “marked fusion of the foot processes”. Moreover, in series [1], the “PAN-induced cytotoxicity to GEC” value is “cytotoxic; also recorded: cell death in a time and dose dependent manner”.
